Data published in patent US8859569B2, “Substituted annellated pyrimidines and use thereof” (Bayer Pharma Aktiengesellschaft, priority 2011, dated 2014).

What was measured:
[1] = biological target: T1, recombinant guanylate cyclase reporter cell line (Rattus norvegicus, UniProt P19686+P20595); assay: Action on recombinant guanylate cyclase reporter cell line; format: cell-based
T1 construct: expressed in transfected cells
T1 sequence (P20595 1-619): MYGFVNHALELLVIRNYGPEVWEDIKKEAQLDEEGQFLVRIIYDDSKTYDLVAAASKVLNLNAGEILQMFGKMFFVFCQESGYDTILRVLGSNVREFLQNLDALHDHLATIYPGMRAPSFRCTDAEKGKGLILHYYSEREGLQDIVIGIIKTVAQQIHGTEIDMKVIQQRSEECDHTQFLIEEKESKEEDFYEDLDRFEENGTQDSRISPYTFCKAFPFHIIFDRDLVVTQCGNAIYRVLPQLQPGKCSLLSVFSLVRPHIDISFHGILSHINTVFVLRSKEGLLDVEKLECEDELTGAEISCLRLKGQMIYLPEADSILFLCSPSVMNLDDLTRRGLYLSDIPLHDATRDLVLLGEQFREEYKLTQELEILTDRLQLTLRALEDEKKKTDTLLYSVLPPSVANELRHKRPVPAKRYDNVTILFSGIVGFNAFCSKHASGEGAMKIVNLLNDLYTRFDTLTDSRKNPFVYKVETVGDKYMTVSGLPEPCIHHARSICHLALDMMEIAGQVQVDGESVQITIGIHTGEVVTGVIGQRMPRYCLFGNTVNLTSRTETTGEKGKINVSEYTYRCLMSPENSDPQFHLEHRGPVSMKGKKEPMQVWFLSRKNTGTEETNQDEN
T1 sequence (P19686 1-690): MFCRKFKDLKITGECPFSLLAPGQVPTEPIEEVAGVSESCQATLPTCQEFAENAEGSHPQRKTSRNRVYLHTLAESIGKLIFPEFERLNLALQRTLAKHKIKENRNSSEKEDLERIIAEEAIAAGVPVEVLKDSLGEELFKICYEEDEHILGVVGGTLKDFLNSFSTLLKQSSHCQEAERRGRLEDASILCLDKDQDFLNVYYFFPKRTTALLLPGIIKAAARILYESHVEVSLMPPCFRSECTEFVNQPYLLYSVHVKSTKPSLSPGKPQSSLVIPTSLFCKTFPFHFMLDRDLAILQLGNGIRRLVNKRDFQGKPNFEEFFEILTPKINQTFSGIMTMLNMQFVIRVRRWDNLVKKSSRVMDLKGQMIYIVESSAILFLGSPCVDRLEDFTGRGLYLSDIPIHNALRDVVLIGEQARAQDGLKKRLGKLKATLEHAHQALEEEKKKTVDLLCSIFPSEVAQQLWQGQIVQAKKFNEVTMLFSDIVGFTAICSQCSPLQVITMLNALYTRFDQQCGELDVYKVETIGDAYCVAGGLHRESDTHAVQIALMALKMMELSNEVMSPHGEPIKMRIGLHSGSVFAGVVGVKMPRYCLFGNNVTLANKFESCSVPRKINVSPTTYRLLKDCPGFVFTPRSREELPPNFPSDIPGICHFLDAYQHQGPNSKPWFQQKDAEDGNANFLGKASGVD
Description: B-2. Action on Recombinant Guanylate Cyclase Reporter Cell Line
The cellular action of the compounds according to the invention is determined on a recombinant guanylate cyclase reporter cell line, as described in F. Wunder et al., Anal. Biochem. 339, 104-112 (2005).

[2] = biological target: T2, human phosphodiesterase 5 (PDE-5) (Homo sapiens, UniProt O76074); assay: Inhibition of human phosphodiesterase 5 (PDE-5), SPA assay; format: biochemical; settings: PDE-5 preparation from human platelets, [8-3H]cGMP substrate
T2 construct: PDE-5 preparations are obtained from human platelets by lysis; from tissue; host or cells: human platelets
Description: B-6. Inhibition of Human Phosphodiesterase 5 (PDE-5)
PDE-5 preparations are obtained from human platelets by lysis (Microfluidizer®, 800 bar, 3 passages), followed by centrifugation (75000 g, 60 min, 4° C.) and ion-exchange chromatography of the supernatant on a Mono Q 10/10 column (linear sodium chloride gradient, elution with a 0.2-0.3M solution of sodium chloride in buffer (20 mM Hepes pH 7.2, 2 mM magnesium chloride). Fractions that have PDE-5 activity are combined (PDE-5 preparation) and stored at −80° C.
For determining their in-vitro action on human PDE-5, the test substances are dissolved in 100% DMSO and serial dilutions are prepared. Typically, dilution series (1:3) from 200 μM to 0.091 μM are prepared (resultant final concentrations in the test: 4 μM to 0.0018 μM). In each case 2 μL of the diluted solutions of the substance are put in the wells of microtitre plates (Isoplate-96/200W; Perkin-Elmer). Then 50 μL of a dilution of the PDE-5 preparation described above is added. The dilution of the PDE-5 preparation is selected so that during subsequent incubation less than 70% of the substrate is reacted (typical dilution: 1:100; dilution buffer: 50 mM Tris/hydrochloric acid pH 7.5, 8.3 mM magnesium chloride, 1.7 mM EDTA, 0.2% BSA). The substrate [8-^3H]cyclic guanosine-3′,5′-monophosphate (1 μCi/μL; Perkin-Elmer) is diluted 1:2000 with assay buffer (50 mM Tris/hydrochloric acid pH 7.5, 8.3 mM magnesium chloride, 1.7 mM EDTA) to a concentration of 0.0005 μCi/μL. The enzyme reaction is finally started by adding 50 μL (0.025 μCi) of the diluted substrate. The test preparations are incubated for 60 min at room temperature and the reaction is stopped by adding 25 μL of a suspension of 18 mg/mL of Yttrium Scintillation Proximity Beads in water (phosphodiesterase beads for SPA assays, RPNQ 0150, Perkin-Elmer). The microtitre plates are sealed with film and left to stand for 60 min at room temperature. Then the plates are measured for 30 s per well in a Microbeta scintillation counter (Perkin-Elmer). IC50 values are determined on the basis of the graphs plotted of the substance concentration versus the percentage PDE-5 inhibition.

| MEC (minimal effective concentration) [1] | IC50 [2] | SMILES |
| --- | --- | --- |
| 0.1 μm | 83 nM | CC1(C)C(=O)Nc2nc(-c3nn(Cc4ccccc4F)c4ncccc34)nc(NCCn3ccnn3)c21 [Example 47, 2-[1-(2-fluorobenzyl)-1H-pyrazolo[3,4-b]pyridin-3-yl]-5,5-dimethyl-4-{[2-(1H-1,2,3-triazol-1-yl)ethyl]amino}-5,7-dihydro-6H-pyrrolo[2,3-d]pyrimidin-6-one] |
| 0.1 μm | 54 nM | Cn1ccc(CNc2nc(-c3nn(Cc4ccccc4F)c4ncccc34)nc3c2C(C)(C)C(=O)N3)n1 [Example 48, 2-[1-(2-fluorobenzyl)-1H-pyrazolo[3,4-b]pyridin-3-yl]-5,5-dimethyl-4-{[(1-methyl-1H-pyrazol-3-yl)methyl]amino}-5,7-dihydro-6H-pyrrolo[2,3-d]pyrimidin-6-one] |
| 0.1 μm | 40 nM | Cc1cc(Nc2nc(-c3nn(Cc4ccccc4F)c4ncccc34)nc3c2C(C)(C)C(=O)N3)nn1C [Example 50, 4-[(1,5-dimethyl-1H-pyrazol-3-yl)amino]-2-[1-(2-fluorobenzyl)-1H-pyrazolo[3,4-b]pyridin-3-yl]-5,5-dimethyl-5,7-dihydro-6H-pyrrolo[2,3-d]pyrimidin-6-one] |
| 0.03 μm | 5 nM | CC1(C)C(=O)Nc2nc(-c3nn(Cc4ccccc4F)c4ncccc34)nc(N[C@@H]3CCCOC3)c21 [Example 51, 2-[1-(2-fluorobenzyl)-1H-pyrazolo[3,4-b]pyridin-3-yl]-5,5-dimethyl-4-(tetrahydro-2H-pyran-3-ylamino)-5,7-dihydro-6H-pyrrolo[2,3-d]pyrimidin-6-one] |
| 0.01 μm | 34 nM | CC1(C)C(=O)Nc2nc(-c3nn(Cc4ccccc4F)c4ncccc34)nc(N3CCC(O)CC3)c21 [Example 52, 2-[1-(2-fluorobenzyl)-1H-pyrazolo[3,4-b]pyridin-3-yl]-4-(4-hydroxypiperidin-1-yl)-5,5-dimethyl-5,7-dihydro-6H-pyrrolo[2,3-d]pyrimidin-6-one] |
| 3.0 μm | 150 nM | COC1CN(c2nc(-c3nn(Cc4ccccc4F)c4ncccc34)nc3c2C(C)(C)C(=O)N3)C1 [Example 53, 2-[1-(2-fluorobenzyl)-1H-pyrazolo[3,4-b]pyridin-3-yl]-4-(3-methoxyazetidin-1-yl)-5,5-dimethyl-5,7-dihydro-6H-pyrrolo[2,3-d]pyrimidin-6-one] |
| 0.03 μm | 130 nM | CC1(C)C(=O)Nc2nc(-c3nn(Cc4ccccc4F)c4ncccc34)nc(NCc3ccccn3)c21 [Example 55, 2-[1-(2-fluorobenzyl)-1H-pyrazolo[3,4-b]pyridin-3-yl]-5,5-dimethyl-4-[(pyridin-2-ylmethyl)amino]-5,7-dihydro-6H-pyrrolo[2,3-d]pyrimidin-6-one] |
| – | 16 nM | C[C@@H](O)CNc1nc(-c2nn(Cc3ccccc3F)c3ncccc23)nc2c1C(C)(C)C(=O)N2 [Example 57, 2-[1-(2-fluorobenzyl)-1H-pyrazolo[3,4-b]pyridin-3-yl]-4-[(2-hydroxypropyl)amino]-5,5-dimethyl-5,7-dihydro-6H-pyrrolo[2,3-d]pyrimidin-6-one] |
| – | 870 nM | CCOC(=O)C1(C)C(=O)Nc2nc(-c3nn(Cc4ccccc4F)c4ncccc34)nc(O)c21 (stereo not drawn) [Example 101, Ethyl-2-[1-(2-fluorobenzyl)-1H-pyrazolo[3,4-b]pyridin-3-yl]-4-hydroxy-5-methyl-6-oxo-6,7-dihydro-5H-pyrrolo[2,3-d]pyrimidine-5-carboxylate] |

Further lines, the compound ahead of its results:

| SMILES | MEC (minimal effective concentration) [1] | IC50 [2] |
| --- | --- | --- |
| Cn1nccc1CNc1nc(-c2nn(Cc3ccccc3F)c3ncccc23)nc2c1C(C)(C)C(=O)N2 [Example 40, 2-[1-(2-Fluorobenzyl)-1H-pyrazolo[3,4-b]pyridin-3-yl]-5,5-dimethyl-4-{[(1-methyl-1H-pyrazol-5-yl)methyl]amino}-5,7-dihydro-6H-pyrrolo[2,3-d]pyrimidin-6-one] | 0.1 μm | 11 nM |
| Cc1ccc(CNc2nc(-c3nn(Cc4ccccc4F)c4ncccc34)nc3c2C(C)(C)C(=O)N3)o1 [Example 41, 2-[1-(2-fluorobenzyl)-1H-pyrazolo[3,4-b]pyridin-3-yl]-5,5-dimethyl-4-{[(5-methylfuran-2-yl)methyl]amino}-5,7-dihydro-6H-pyrrolo[2,3-d]pyrimidin-6-one] | 0.01 μm | 170 nM |
| CC1(C)C(=O)Nc2nc(-c3nn(Cc4ccccc4F)c4ncccc34)nc(NCc3ccccc3F)c21 [Example 42, 4-[(2-fluorobenzyl)amino]-2-[1-(2-fluorobenzyl)-1H-pyrazolo[3,4-b]pyridin-3-yl]-5,5-dimethyl-5,7-dihydro-6H-pyrrolo[2,3-d]pyrimidin-6-one] | 0.1 μm | 120 nM |
| CC1(C)C(=O)Nc2nc(-c3nn(Cc4ccccc4F)c4ncccc34)nc(NCC3CC3)c21 [Example 43, 4-[(cyclopropylmethyl)amino]-2-[1-(2-fluorobenzyl)-1H-pyrazolo[3,4-b]pyridin-3-yl]-5,5-dimethyl-5,7-dihydro-6H-pyrrolo[2,3-d]pyrimidin-6-one] | 0.03 μm | 410 nM |
| CC(=O)NCCNc1nc(-c2nn(Cc3ccccc3F)c3ncccc23)nc2c1C(C)(C)C(=O)N2 [Example 44, N-[2-({2-[1-(2-fluorobenzyl)-1H-pyrazolo[3,4-b]pyridin-3-yl]-5,5-dimethyl-6-oxo-6,7-dihydro-5H-pyrrolo[2,3-d]pyrimidin-4-yl}amino)ethyl]acetamide] | 0.1 μm | 86 nM |
| CC1(C)C(=O)Nc2nc(-c3nn(Cc4ccccc4F)c4ncccc34)nc(NC[C@@H]3CCOC3)c21 [Example 45, 2-[1-(2-fluorobenzyl)-1H-pyrazolo[3,4-b]pyridin-3-yl]-5,5-dimethyl-4-[(tetrahydrofuran-3-ylmethyl)amino]-5,7-dihydro-6H-pyrrolo[2,3-d]pyrimidin-6-one] | 0.1 μm | 78 nM |
| CC1(C)C(=O)Nc2nc(-c3nn(Cc4ccccc4F)c4ncccc34)nc(N3C[C@@H]4C[C@H]3CO4)c21 [Example 46, 2-[1-(2-fluorobenzyl)-1H-pyrazolo[3,4-b]pyridin-3-yl]-5,5-dimethyl-4-[(1S,4S)-2-oxa-5-azabicyclo[2.2.1]hept-5-yl]-5,7-dihydro-6H-pyrrolo[2,3-d]pyrimidin-6-one] | 0.1 μm | 35 nM |
